Results: PMC11327210, “A first-in-human phase I trial of daily oral zelenirstat, a N-myristoyltransferase inhibitor, in patients with advanced solid tumors and relapsed/refractory B-cell lymphomas” (Investigational New Drugs, 2024)

Assays:
[1] = tested on: cell line derived xenografts from breast carcinomas; set-up: method as in PMID 33398478; settings: mice-bearing established human tumor xenografts; cited from earlier work
[2] = tested on: cultured human cancer cells; set-up: method as in PMID 33093447; settings: wide variety of cultured human cancer cells; cited from earlier work
[3] = Plasma pharmacokinetics in phase I patients (UPLC-MS/MS); settings: beyond Day 15
Experimental: Peripheral blood samples were collected over six time points in the first 8 h of Cycle 1, Day 1 (C1D1), and again on C1D15. Pre-treatment Day 1 levels were obtained with every subsequent cycle.

[4] = tested on: patients with advanced solid tumors and relapsed/refractory (R/R) B-cell lymphomas; assay: Phase I dose escalation: safety, DLT, MTD/RP2D (NCI-CTCAE v5.0); format: in vivo; settings: for Grade ≥ 3 treatment-related adverse events: Hypophosphatemia / Grade ≥ 3 treatment-related adverse events: Metabolism and nutrition disorders / Grade ≥ 3 treatment-related adverse events: Nausea / No. of pts with Gr ≥ 3 TRAEs: daily oral
Text: A standard 3 + 3 design was used to assess for MTD and establish RP2D according to a pre-determined dose-escalation schema (Table 1). There was no intra-patient dose escalation. The MTD was defined as the dose level below the cohort in which 2 or more patients experienced a first cycle, zelenirstat attributable, dose-limiting toxicity (DLT), and the MTD required confirmation in at least 6 patients.
DLT was defined as any of the following: Grade (Gr) 4 thrombocytopenia, Gr 3 thrombocytopenia with bleeding, Gr 4 neutropenia ≥ 7 days, febrile neutropenia, clinically significant ≥ Gr 3 non-hematologic toxicity, or any significant toxicity warranting a withhold of zelenirstat. […] Toxicity was graded according to the National Cancer Institute Common Toxicity Criteria for Adverse Events (NCI-CTCAE) version 5.0.
For dose escalation, patients received daily oral zelenirstat on 28-day cycles. It was administered as 10 mg and 70 mg capsules, with instructions to take on an empty stomach each morning with 250 ml of tap water. Patients received zelenirstat until progressive disease, unacceptable toxicity, or withdrawal of consent.
Baseline imaging and hematology and blood chemistry were obtained within 4 weeks and 1 week of study entry, respectively. Baseline screening included a complete medical history, physical examination, assessment of ECOG performance status, and body weight. CT imaging was used for advanced solid tumors and B-cell NHL; PET-CT was optional for B-cell NHL. Weekly complete blood counts with white blood cell differentiation and blood chemistries were drawn for the first cycle, biweekly for cycle 2, and then prior to each 28-day cycle. Adverse events were evaluated weekly in the first cycle, biweekly for cycle 2, and before each subsequent cycle using the NCI-CTCAE version 5.0.

[5] = tested on: cell line derived xenografts from lung carcinomas; set-up: method as in Pacylex Inc., data on file; settings: mice-bearing established human tumor xenografts, ref Pacylex Inc., data on file; cited from earlier work
[6] = tested on: cell line and patient derived xenograft models of AML; set-up: method as in doi:10.1182/blood-2022-170544; settings: cited from earlier work
[7] = oral once daily, 28-day cycles, patients

Structure (SMILES): Cc1c(NS(=O)(=O)c2c(Cl)cc(-c3ccnc(N4CCNCC4)c3)cc2Cl)c(CC(C)C)nn1C [zelenirstat]
- xenograft tumor response [1]: tumor growth inhibition
- effect on cultured human cancer cells [2]: cytotoxic or cytostatic
- accumulation over multiple cycles (pre-dose concentrations) [3]: no accumulation was apparent beyond Day 15
- Grade ≥ 3 treatment-related adverse events: Hypophosphatemia ([4]; 20 mg (N = 3)): 0 n, %
- Grade ≥ 3 treatment-related adverse events: Metabolism and nutrition disorders ([4]; 20 mg (N = 3)): 0 n, %
- Grade ≥ 3 treatment-related adverse events: Nausea ([4]; 20 mg (N = 3)): 0 n, %
- No. of pts with Gr ≥ 3 TRAEs ([4]; 20 mg (N = 3)): 0 n, %
- Grade ≥ 3 treatment-related adverse events: Hypophosphatemia ([4]; 40 mg (N = 3)): 0 n, %
- Grade ≥ 3 treatment-related adverse events: Metabolism and nutrition disorders ([4]; 40 mg (N = 3)): 0 n, %
- Grade ≥ 3 treatment-related adverse events: Nausea ([4]; 40 mg (N = 3)): 0 n, %
- No. of pts with Gr ≥ 3 TRAEs ([4]; 40 mg (N = 3)): 0 n, %
- Grade ≥ 3 treatment-related adverse events: Hypophosphatemia ([4]; 70 mg (N = 3)): 0 n, %
- Grade ≥ 3 treatment-related adverse events: Metabolism and nutrition disorders ([4]; 70 mg (N = 3)): 0 n, %
- Grade ≥ 3 treatment-related adverse events: Nausea ([4]; 70 mg (N = 3)): 0 n, %
- No. of pts with Gr ≥ 3 TRAEs ([4]; 70 mg (N = 3)): 1 (33) n, %
- Grade ≥ 3 treatment-related adverse events: Hypophosphatemia ([4]; 100 mg (N = 5)): 0 n, %
- Grade ≥ 3 treatment-related adverse events: Metabolism and nutrition disorders ([4]; 100 mg (N = 5)): 0 n, %
- Grade ≥ 3 treatment-related adverse events: Nausea ([4]; 100 mg (N = 5)): 0 n, %
- No. of pts with Gr ≥ 3 TRAEs ([4]; 100 mg (N = 5)): 0 n, %
- Grade ≥ 3 treatment-related adverse events: Hypophosphatemia ([4]; 140 mg (N = 3)): 0 n, %
- Grade ≥ 3 treatment-related adverse events: Metabolism and nutrition disorders ([4]; 140 mg (N = 3)): 0 n, %
- Grade ≥ 3 treatment-related adverse events: Nausea ([4]; 140 mg (N = 3)): 0 n, %
- No. of pts with Gr ≥ 3 TRAEs ([4]; 140 mg (N = 3)): 0 n, %
- Grade ≥ 3 treatment-related adverse events: Hypophosphatemia ([4]; 210 mg (N = 7)): 0 n, %
- Grade ≥ 3 treatment-related adverse events: Metabolism and nutrition disorders ([4]; 210 mg (N = 7)): 0 n, %
- Grade ≥ 3 treatment-related adverse events: Nausea ([4]; 210 mg (N = 7)): 0 n, %
- No. of pts with Gr ≥ 3 TRAEs ([4]; 210 mg (N = 7)): 0 n, %
- Grade ≥ 3 treatment-related adverse events: Hypophosphatemia ([4]; 280 mg (N = 5)): 1 (20) n, %
- Grade ≥ 3 treatment-related adverse events: Metabolism and nutrition disorders ([4]; 280 mg (N = 5)): 1 (20) n, %
- Grade ≥ 3 treatment-related adverse events: Nausea ([4]; 280 mg (N = 5)): 1 (20) n, %
- No. of pts with Gr ≥ 3 TRAEs ([4]; 280 mg (N = 5)): 4 (80) n, %
- evaluable patients with first cycle dose-limiting gastrointestinal toxicities ([4]; 280 mg daily cohort): Three
- neuropathy ([4]; dose cohorts up to and including 210 mg): No neuropathy was reported
- Gr 2 thrombocytopenia, patients ([4]; dose cohorts up to and including 210 mg, resolved despite continuation at full dose): 12%
- maximum tolerated dose (MTD) [4, 7]: 210 mg
- recommended phase 2 dose (RP2D) [4, 7]: 210 mg
- drug-induced QT prolongation ([4]; pre- and post-dose ECG assessments, patients): no evidence of drug-induced QT prolongation
- first cycle (or any cycle) DLTs ([4]; six evaluable patients, 210 mg per day cohort): absence of first cycle (or any cycle) DLTs
- xenograft tumor response [5]: tumor growth inhibition
- xenograft tumor response [6]: similarly profound remissions
